US12454703B2, “Controllable transcription” (Cambridge Enterprise Limited (GB/GB), priority 2016, dated 2025)

What was measured:
[1] = system: EGFPd2 homozygous sOPTiKO hESCs; assay: Inducible CRISPR/Cas9 knockout of EGFPd2 reporter in hESCs; assay type: cell-based, human
Method: For single site OPTIKO, AAVS1 targeting was performed by nucleofection. hESCs pre-treated for 16 h with 10 μM Y-27632 (Tocris) were dissociated to clumps of 2-8 cells using Accutase (Gibco), and 2×10^6 cells were nucleofected in 100 μl with a total of 12 μg of DNA (4 μg each for the two ZFN plasmids, and 2 μg each for the two targeting vectors) using the Lonza P3 Primary Cell 4D-Nucleofector X Kit and the cycle CA-137 on a Lonza 4D-Nucleofector System, all according to manufacturer's instructions. Nucleofected hESCs were plated onto a feeder layer of irradiated DR4 (puromycin and neomycin resistant) mouse embryonic fibroblasts and cultured in KSR media supplemented with 4 ng ml-1 FGF2 and 10 μM Y-27632 (this last only for the first 24 h). After 4 days, hPSC colonies carrying both puromycin and neomycin resistance gene were selected for 7-10 days with 25 μg ml-1 of Geneticin (G418 Sulfate, Gibco) and 0.5 μg ml-1 Puromycin. Individual clones were then picked and expanded in feeder-free conditions.
Unless otherwise described in the figure legends or Examples, tetracycline hydrochloride (sigma-Aldrich) was used at 1 μg ml^−1 to induce gene knockdown or knockout. Induction of neurons Pluripotent OPTi-NGN2 cells were dissociated into single cells with TrypLE and plated onto Matrigel (35 μg/cm^2, Scientific Laboratory Supplies) coated dishes at a density of 75.000 cells per well of a 12 well plate. […] After 2 days of induction, the medium was switched to Neurobasal-medium supplemented with Glutamax (100×), B27 (50×, Gibco), BDNF (10 ng/ml, Peprotech), NT3 (10 ng/ml, R&D Systems), Penicillin/Streptomycin (1%), and doxycycline (1 μg/ml).

[2] = system: induced myocytes; assay: Contraction of induced skeletal myocytes; assay type: cell-based, human; conditions: nanomolar concentrations
[3] = system: OPTi-MYOD1 hPSCs
Method: Pluripotent OPTi-MYOD1 cells were dissociated into single cells with TrypLE and plated onto gelatine/MEF-medium coated dishes at a density of 100.000 cells per well of a 12 well plate. Forward programming was initiated 24-48 hours after the split. […] After 5 days of induction, the medium was supplemented with CHIR99021 (3 μM, Tocris) and heat-inactivated horse serum (2%, Gibco) to enhance maturation.
For analysis of EGFP expression cells were harvested with TrypLE Select (Gibco) for 5-10 minutes at 37° C. to obtain a single cell suspension. Following a wash with PBS, cells were resuspended in ice-cold PBS supplemented with DAPI (10 μg/ml), and incubated for 5 minutes on ice. Cells were analyzed using a Cyan ADP flow-cytometer to determine the levels of EGFP expression of viable cells (DAPI negative). For staining and analysis of myosin heavy chain expression cells were harvested with TrypLE Select (as for EGFP expression analysis), washed once with PBS, and fixed and permeabilized with Cytofix/Cytoperm solution (BD Biosciences). Subsequently, cells were washed and blocked in Perm/Wash buffer (BD Biosciences) supplemented with 3% bovine serum albumin (BSA) at +4° C. overnight. […] After three washes with Perm/Wash buffer cells were analyzed with a Cyan ADP flowcytometer to determine the levels of MHC expression. […]

`CN(C)[C@@H]1C(O)=C(C(N)=O)C(=O)[C@@]2(O)C(O)=C3C(=O)c4c(O)cccc4[C@@](C)(O)[C@H]3C[C@@H]12` [tetracycline] was tested, and the “reduction in EGFPd2 fluorescence” value ([1]; five days following tetracycline induction, EGFPd2 homozygous cells) was 50%, the knockout ([1]; optimal gRNA sequence, 2 days of induction) was “up to 90%” and the “EGFPd2 homozygous cells with full loss of EGFPd2 fluorescence” value ([1]; prolonged treatment with tetracycline) was “up to 75%”. The knockout efficiency ([1]; simultaneous induction of three copies of the same gRNA) was 95%.

`C[N+](C)(C)CCOC(N)=O` [carbachol] was tested, and the muscle fiber contraction [2] was “complete muscle fiber contraction”.

In the case of `CC1=C(/C=C/C(C)=C/C=C/C(C)=C/C(=O)O)C(C)(C)CCC1` [all-trans retinoic acid], the “conversion into myogenin and myosin heavy chain (MHC) double-positive myocytes” value ([3]; in conjunction with MYOD1 overexpression, by day 5 after induction) is reported as “rapid and near-complete conversion” and the “nature of the RA effect on myocyte conversion” value ([3]; mediated through RA-receptor isoforms RARa and RARB) is reported as “concentration dependent”.
